Assay results as given in US7700584B2 (Hangzhou Minsheng Pharmaceuticals Co., Ltd., priority 2004, dated 2010).
Where a name gives a salt, the structure may show the parent alone. Read-outs that look alike come from different tables or passages of the source.

Assays:
[1] = test system: U-937 human histocytic lymphoma; experiment: In vitro inhibition rate to tumor cells (MTT), U-937; format: cell-based; conditions: Homo sapiens, U-937, 50 μg/ml, read-out: inhibition rate, Results (%) U-937
[2] = test system: A-549 human lung adenocarcinoma; experiment: In vitro inhibition rate to tumor cells (MTT), A-549; format: cell-based; conditions: Homo sapiens, A549, 50 μg/ml, read-out: inhibition rate, Results (%) A-549
[3] = test system: Bel-7402 human hepatic carcinoma; experiment: In vitro inhibition rate to tumor cells (MTT), Bel-7402; format: cell-based; conditions: Homo sapiens, Bel-7402, 50 μg/ml, read-out: inhibition rate, Results (%) Bel-7402
[4] = test system: SMMC-7721 human hepatic carcinoma; experiment: In vitro inhibition rate to tumor cells (MTT), SMMC-7721; format: cell-based; conditions: Homo sapiens, SMMC-7721, 50 μg/ml, read-out: inhibition rate, Results (%) SMMC-7721
[5] = test system: HL-60 human promyelocytic leukemia; experiment: In vitro inhibition rate to tumor cells (MTT), HL-60; format: cell-based; conditions: Homo sapiens, HL-60, 50 μg/ml, read-out: inhibition rate, Results (%) HL-60
[6] = test system: Hela human cervical carcinoma; experiment: In vitro inhibition rate to tumor cells (MTT), Hela; format: cell-based; conditions: Homo sapiens, HeLa, 50 μg/ml, read-out: inhibition rate, Results (%) Hela
[7] = test system: LLC mouse Lewis lung carcinoma; experiment: In vitro inhibition rate to tumor cells (MTT), LLC; format: cell-based; conditions: Mus musculus, Lewis lung carcinoma, 50 μg/ml
[8] = test system: Hela human cervical carcinoma; experiment: In vitro anti-tumor IC50 (MTT), Hela; format: cell-based; conditions: Homo sapiens, HeLa; Table 4; read-out: IC50 (ug/ml) against tumor cell lines, Hela
[9] = test system: U-937 human histocytic lymphoma; experiment: In vitro anti-tumor IC50 (MTT), U-937; format: cell-based; conditions: Homo sapiens, U-937; Table 4; read-out: IC50 (ug/ml) against tumor cell lines, U-937
[10] = test system: MCF-7 human mammary adenocarcinoma; experiment: In vitro anti-tumor IC50 (MTT), MCF-7; format: cell-based; conditions: Homo sapiens, MCF7; Table 4; read-out: IC50 (ug/ml) against tumor cell lines, MCF
Method: (§1) (1) Single cell suspension was seeded into 96-well plates (the cells was diluted in the PRMI-1640 minimum medium to 3×10^4 cells/ml, […] diluted cells/well). […] The experiments were performed in quadruplicate.
(§2) (2) The medium was removed. Solutions of the anti-tumor agents (50 compounds) were prepared in a freshly prepared medium at serial concentrations. […] of the solution was added into each well. Incubation was continued for 48 hours.
(§3) (3) 20 ug of 2 mg/ml MTT was added into each well, and incubated for 4 hours.
(§4) (4) The medium was removed from the well. The microplates were swiftly turned down to throw-off the medium. […] of DMSO was added into each well, and vortexed at room temperature for 10 minutes.
(§5) (5) OD value (λ=570 nm) was measured with an Enzyme-Linked Detector.
(§6) (6) The graph of cell vitality was plotted, and IC50 was calculated.

[11] = test system: HL-60 human promyelocytic leukemia; experiment: In vitro anti-tumor IC50 (MTT), HL-60; format: cell-based; conditions: Homo sapiens, HL-60; Table 4; read-out: IC50 (ug/ml) against tumor cell lines, HL-60
Method: as §1, §2, §3, §4, §5, §6

[12] = molecular target: T1, HIV-1 proteinase (HIV-1 PR) (Human immunodeficiency virus type 1 group M subtype B, UniProt P04585); experiment: Screening for in vitro activity against HIV-1 proteinase; format: biochemical; conditions: for inhibition at 0.08 µg/mL: 0.08 μg/ml; for inhibition at 0.08 µg/mL / inhibition at 0.4 µg/mL / inhibition at 2 µg/mL / inhibition at 10 µg/mL: read-out: Inhibition rate; for inhibition at 0.4 µg/mL: 0.40 μg/ml; for inhibition at 2 µg/mL: 2.0 μg/ml; for inhibition at 10 µg/mL: 10 μg/ml; for IC50: IC50, five 5× serial dilutions from 50 μg/ml; for inhibition at 50 µg/mL: read-out: Inhibition rate, 50 μg/ml
T1 construct: HIV-1 proteinase digests the fluorescent-labeled substrate; purchased
How it was run: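 Inhibition was scored from product fluorescence after the enzyme was added to buffer holding the labeled substrate and the test sample. Samples were five serial 5× dilutions in water from a DMSO solution. Indinavir served as the reference control; the enzyme was recombinant HIV-1 PR.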

[13] = molecular target: T2, HIV-1 reverse transcriptase (Human immunodeficiency virus type 1 group M subtype B, UniProt P04585); experiment: Screening for the in vitro activity against the HIV-1 reverse transcriptase; format: biochemical; conditions: IC50, initial concentration 200 μg/ml
T2 construct: purchased
How it was run: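 Each sample, taken from DMSO through five 5-fold water dilutions, was incubated with recombinant RT and Biotin-dUTP substrate. Enzyme activity was quantified as biotin label incorporated into the plate-bound template, using streptavidin-HRP with absorbance at 450 nm.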

293 cells = experiment: Cell status of 293 cells treated with sample alone (herpes virus screening); conditions: 200 μg/ml, 24 hrs

Q: Which inhibition at 50 µg/mL ([1]; Table 1) does the source give for `CC(C)C1CC23OC1(O)CC(=CN1CCNCC1)C2CCC3C` (centres unmarked) [Compound 8, Curcumol piperazine hydrochloride] here?
A: 90.3%

Q: And the inhibition at 50 µg/mL ([1]; Table 2 (repeated screening))?
A: 91.3%

Q: What about the inhibition at 50 µg/mL ([1]; Table 3 (repeated screening)) of the same compound?
A: 94.4%

Q: And the inhibition at 50 µg/mL ([2]; Table 1)?
A: 60.5%

Q: And the inhibition at 50 µg/mL ([2]; Table 2 (repeated screening))?
A: 58.6%

Q: What about the inhibition at 50 µg/mL ([2]; Table 3 (repeated screening)) of the same compound?
A: 55.9%

Q: What about the inhibition at 50 µg/mL ([3]; Table 1) of the same compound?
A: 54.3%

Q: What about the inhibition at 50 µg/mL ([3]; Table 2 (repeated screening)) of the same compound?
A: 50.5%

Q: And the inhibition at 50 µg/mL ([3]; Table 3 (repeated screening))?
A: 54.9%

Q: What about the inhibition at 50 µg/mL ([4]; Table 1) of the same compound?
A: 4.5%

Q: And the inhibition at 50 µg/mL ([4]; Table 2 (repeated screening))?
A: 2.3%

Q: And the inhibition at 50 µg/mL ([4]; Table 3 (repeated screening))?
A: 7.98%

Q: What about the inhibition at 50 µg/mL ([5]; Table 1) of the same compound?
A: 92%

Q: What about the inhibition at 50 µg/mL ([5]; Table 2 (repeated screening)) of the same compound?
A: 90.2%

Q: And the inhibition at 50 µg/mL ([5]; Table 3 (repeated screening))?
A: 91.1%

Q: And the inhibition at 50 µg/mL ([6]; Table 1)?
A: 91.9%

Q: What about the inhibition at 50 µg/mL ([6]; Table 2 (repeated screening)) of the same compound?
A: 92%

Q: And the inhibition at 50 µg/mL ([6]; Table 3 (repeated screening))?
A: 91.5%

Q: And the inhibition at 50 µg/mL ([7]; Table 1)?
A: 12.1%

Q: What about the inhibition at 50 µg/mL ([7]; Table 2 (repeated screening)) of the same compound?
A: 1.02%

Q: What about the inhibition at 50 µg/mL ([7]; Table 3 (repeated screening)) of the same compound?
A: 3.12%

Q: And the IC50 [8]?
A: 0.59 µg/mL

Q: What about the IC50 [9] of the same compound?
A: 0.81 µg/mL

Q: And the IC50 [10]?
A: 3.28 µg/mL

Q: What about the IC50 [11] of the same compound?
A: 1.68 µg/mL

Q: And the inhibition at 0.08 µg/mL [12]?
A: 9.74%

Q: And the inhibition at 0.4 µg/mL [12]?
A: 2.64%

Q: What about the inhibition at 2 µg/mL [12] of the same compound?
A: 5.27%

Q: And the inhibition at 10 µg/mL [12]?
A: 0.62%

Q: What about the IC50 [12] of the same compound?
A: > 156 µM

Q: And the inhibition at 50 µg/mL [12]?
A: 1.4%

Q: What about the IC50 [13] of the same compound?
A: > 624 µM

Q: And the “Cytopathy and cell status, Sample” value (293 cells)?
A: Good

Q: What does the source list for `CC(C)C1CC23OC1(O)CC(=CBr)C2CCC3C` (centres unmarked) [Compound 17, Curcumol monobromide]?
A: inhibition at 50 µg/mL ([1]; Table 1): 87.2%; inhibition at 50 µg/mL ([1]; Table 2 (repeated screening)): 85.1%; inhibition at 50 µg/mL ([2]; Table 1): 4.68%; inhibition at 50 µg/mL ([2]; Table 2 (repeated screening)): 5.23%; inhibition at 50 µg/mL ([3]; Table 1): -12.4%; inhibition at 50 µg/mL ([3]; Table 2 (repeated screening)): -10.9%; inhibition at 50 µg/mL ([4]; Table 1): 10.2%; inhibition at 50 µg/mL ([4]; Table 2 (repeated screening)): 0.32%; inhibition at 50 µg/mL ([5]; Table 1): 92.3%; inhibition at 50 µg/mL ([5]; Table 2 (repeated screening)): 90.1%; inhibition at 50 µg/mL ([6]; Table 1): 91.6%; inhibition at 50 µg/mL ([6]; Table 2 (repeated screening)): 92.4%; inhibition at 50 µg/mL ([7]; Table 1): 7.27%; inhibition at 50 µg/mL ([7]; Table 2 (repeated screening)): 2.31%; IC50 [8]: 1.5 µg/mL; IC50 [9]: 0.92 µg/mL; IC50 [10]: 4.63 µg/mL; IC50 [11]: 1.85 µg/mL; inhibition at 0.08 µg/mL [12]: 3.78%; inhibition at 0.4 µg/mL [12]: 10.7%; inhibition at 2 µg/mL [12]: -6%; inhibition at 10 µg/mL [12]: 6.15%; IC50 [12]: > 159 µM; inhibition at 50 µg/mL [12]: 9.94%; IC50 [13]: > 634 µM; Cytopathy and cell status, Sample (293 cells): Good
